Entries after “also recorded” stand apart in the source; their conditions may differ. Where two headings read alike, the source gives them in different places. Marks after values point to notes of the source that are not given here.
How the values were obtained:
[1] = test system: SUR-1−/− mice; assay: Fasting blood glucose during continuous subcutaneous exendin-(9-39) infusion in SUR-1−/− mice; format: in vivo, mouse; settings: 150 pmol/kg/min s.c. pump, day 3, mean±SEM, vehicle 63.2±4.9
Excerpt: (§1) SUR-1^−/− mice were kindly provided by Dr. Mark A. Magnuson. The generation and genotyping of SUR-1^−/− mice were previously described (8). Mice are maintained in a C57Bl/6 genetic background. Twelve to eighteen week SUR-1^−/− and wild-type littermatte control mice were used in all experiments. Mice were maintained on a 12:12-h light-dark cycle and were fed a standard rodent chow diet. All procedures were approved and carried out according to the University of Pennsylvania Institutional Animal Care and Use Committee guidelines. […]
(§2) For determination of fasting blood glucose levels mice were fasted for 12-16 hours. […] Blood glucose levels were measured using a hand-held glucose meter (FreeStyle; TheraSense, Alameda, Calif.). Insulin and glucagon were measured by ELISA (Mouse Endocrine Immunoassay Panel; Linco Research, Inc., St. Charles, Mo.).
(§3) Twelve-18 week old male SUR-1^−/− and wildtype littermates underwent a baseline evaluation including fasting blood glucose measurements and oral glucose tolerance testing, followed by randomization to treatment with exendin-(9-39) (150 pmol/kg/min) or vehicle (0.9% NaCl, 1% BSA). Fasting blood glucose levels were determined after an overnight fast on days 3 and 7 of the infusion. In addition, oral glucose tolerance and insulin sensitivity were evaluated during treatment. […]

[2] = test system: wild-type littermate control mice; assay: Fasting blood glucose during continuous subcutaneous exendin-(9-39) infusion in wild-type littermates; format: in vivo, mouse; settings: 150 pmol/kg/min s.c. pump
Excerpt: as §1, §2, §3

[3] = test system: SUR-1−/− mice; assay: Fasting hormonal profile (insulin, glucagon, insulin/glucose ratio) during treatment; format: in vivo, mouse
Procedure: (§4) Alzet mini-osmotic pumps (model 2002; Alza, Palo Alto, Calif.) were implanted subcutaneously to deliver exendin-(9-39) (Bachem Bioscience, King of Prussia, Pa.) at a rate of 150 pmol/kg/min or vehicle (0.9% NaCl/1% BSA) for 2 weeks. For determination of fasting blood glucose levels mice were fasted for 12-16 hours. Oral glucose tolerance testing was carried after a 12-16 hour fast by administering 2 g/kg of dextrose by oral gavage (feeding needles; Popper and Sons, Inc., Hyde Park, N.Y.). For insulin tolerance testing mice received 0.5 units/kg of insulin intraperitoneally after a 4 hour fast. Blood glucose levels were measured using a hand-held glucose meter (FreeStyle; TheraSense, Alameda, Calif.). Insulin and glucagon were measured by ELISA (Mouse Endocrine Immunoassay Panel; Linco Research, Inc., St. Charles, Mo.).

[4] = test system: SUR-1−/− mice; assay: Oral glucose tolerance test in SUR-1−/− mice; format: in vivo, mouse
Procedure: as §4

[5] = test system: wild-type littermates; assay: Oral glucose tolerance test in wild-type littermates; format: in vivo, mouse; settings: wild-type littermates during treatment
Procedure: as §4

[6] = test system: SUR-1−/− and wild-type mice; assay: Insulin tolerance test (insulin sensitivity); format: in vivo, mouse; settings: any of the treatment groups; 0.5 units/kg insulin i.p.
Procedure: as §4, with “Mo.). To determine the mechanism of action for the effect of exendin-(9-39) on fasting blood glucose levels insulin sensitivity was assessed by an insulin tolerance test.” for “Mo.).”

[7] = test system: SUR-1−/− islets; assay: Perifusion of isolated islets with amino acid ramp, insulin release; format: cell-based, mouse
Procedure: Islets were isolated by collagenase digestion and cultured for 3 days in RPMI 1640 medium containing 10 mM glucose. The culture medium was supplemented with 10% fetal bovine serum, 2 mM glutamine, 100 units/mL penicillin, and 50 μg/mL streptomycin. Islets were incubated at 37° C. in a 5% CO2, 95% air-humidified incubator. Batches of 100 cultured mouse islets were loaded onto a nylon filter in a chamber and perifused with Krebs-Ringer bicarbonate buffer (115 mM NaCl, 24 mM NaHCO3, 5 mM KCl, 1 mM MgCl2, 2.5 mM CaCl2), 10 mM HEPES, pH 7.4) with 0.25% bovine serum albumin at a flow rate of 2 mL/min. Perifusate solutions were gassed with 95% 02, 5% CO2 and maintained at 37° C. Islets were stimulated with a ramp of amino acids. […] Insulin was measured by radioimmunoassay (Linco Research Inc., St. Charles, Mo.).
Given the observed in vivo effects on insulin secretion but not insulin sensitivity, it was next determined whether exendin-(9-39) exerts a direct effect on SUR-1^−/− islet function. […]

[8] = test system: SUR-1−/− islets; assay: cAMP content in static incubations of isolated islets; format: cell-based, mouse
Procedure: Islets were isolated as above, hand-picked and cultured for three days. Cultured islets were preincubated in glucose free Krebs-Ringer bicarbonate buffer for 60 min, 100 nM exendin-(9-39) was added 30 min into the preincubation period. Then, islets were exposed to different treatments for an additional 30 min in the presence of 0.1 mM isobutyl-methylzanthine (IBMX). After incubation, islets were washed 2 times by cold glucose-free Hank's buffer. cAMP was measured in islet lysates by ELISA (GE/Amersham Biosciences, Piscataway, N.J.). The effect of exendin-(9-39) on cAMP was determined in static incubations of isolated islets.

[9] = test system: SUR-1−/− islets; assay: Insulin secretion in static incubations of isolated islets; format: cell-based, mouse
[10] = test system: SUR-1−/− islets; assay: Cytosolic free Ca2+ measurement (Fura-2) in islets; format: cell-based, mouse
Procedure: Mouse islets were isolated and cultured on poly-[…] coated glass coverslips under the same conditions as described above. The perifusion procedure and cytosolic-free Ca2+([Ca2+]i) measurement were described previously (24). In brief, the coverslip with attached islets was incubated with 15 μM Fura-2 acetoxymethylester (Molecular Probes, Eugene, Oreg.) in Krebs-Ringer bicarbonate buffer with 5 mM glucose for 35 min at 37° C. Islets were then perifused with Krebs-Ringer bicarbonate buffer with 0.25% bovine serum albumin at 37° C. at a flow rate of 2 mL/min, while various agents were applied. [Ca2+]i was measured with a dual wavelength fluorescence microscope as previously described. The effect of exendin-(9-39) on the characteristically elevated intracellular calcium concentration of SUR-1^-/- islets was studied. […] As previously reported, amino acids caused a transient further rise in intracellular calcium.

[11] = test system: subject with congenital hyperinsulinism due to a mutation in ABCC8; assay: Intravenous exendin-(9-39) infusion in fasting subjects with congenital hyperinsulinism; format: in vivo, human
Procedure: After an overnight fast, subject received an intravenous infusion of 0.9% NaCl for 60 min followed by a 6 hour intravenous infusion of exendin-(9-39) at ascending doses every 120 min (100 pmol/kg/min for 120 min, then 300 pmol/kg/min for 120 min and then 500 pmol/kg/min for 120 min). On the second day, 0.9% NaCl was infused intravenously after an overnight fast for a total of 7 hours.
Blood samples for glucose, insulin, C-peptide, glucagon and GLP-1 were obtained at different intervals during the infusions.

[12] = among the treatment groups, during treatment
[13] = fasting HI subject, i.v. ascending doses

## exendin-(9-39)
[1]
  Fasting blood glucose levels: 82.2 ± 6.3 mg/dL
[2]
  Fasting blood glucose levels vs vehicle-treated wild type controls: not different
[3]; SUR-1−/− mice, exendin-(9-39) treatment vs WT
  Insulin/glucose ratio: normalized
[3]; [12]
  Fasting glucagon levels: not different
  Fasting insulin levels: not different
[4]; SUR-1−/− mice during treatment
  Glucose tolerance (oral, 2 g/kg): did not significantly impair; also recorded: did not influence
[4]; SUR-1−/− mice, 120 minute time point
  Return to baseline blood glucose levels after oral glucose: minor delay
[5]
  Glucose tolerance (oral, 2 g/kg): no effect
[6]
  Peripheral insulin sensitivity (insulin tolerance test): did not impact; also recorded: did not influence
[7]; 100 nM exendin-(9-39), amino acid mixture 0-12 mM
  Insulin release in response to amino acid ramp stimulation: blocked
[7]; presence vs absence of exendin-(9-39)
  Insulin response to KCl: similar
[8]; 100 nM exendin-(9-39) with 4 mM amino acid mixture (AAM)
  cAMP Content: 20.9±4.4 pmol/100 islets
[8]; 100 nM exendin-(9-39) with 4 mM amino acid mixture (AAM), listed as Exendin-(9-39)
  cAMP Content: 52.5 ± 9.4 ^c pmol/100 islets
[8]; basal, 100 nM exendin-(9-39), no exogenous GLP-1, baseline 40.1±4.2
  cAMP Content: 20.5±2.3 pmol/100 islets
[8]; basal, 100 nM exendin-(9-39), no exogenous GLP-1, baseline 40.1±4.2, listed as Exendin-(9-39)
  cAMP Content: 20.5 ± 2.3 ^a pmol/100 islets
[9]; 100 nM exendin-(9-39) with 4 mM AAM, AAM alone 389±17
  Insulin Secretion: 219±14 ng/100 islets/30 min
[9]; 100 nM exendin-(9-39) with 4 mM AAM, AAM alone 389±17, listed as Exendin-(9-39)
  Insulin Secretion: 219 ± 14 ng/100 islets/30 min
[9]; baseline, 100 nM exendin-(9-39), baseline without 221±22
  Insulin Secretion: 126±12 ng/100 islets/30 min
[9]; baseline, 100 nM exendin-(9-39), baseline without 221±22, listed as Exendin-(9-39)
  Insulin Secretion: 126 ± 12 ^a ng/100 islets/30 min
[10]
  Basal intracellular calcium: did not impact
[10]; amino acids 4 mM
  Amino acid-stimulated rise in intracellular calcium: no effect
[10]; listed as Exendin-(9-39)
  Basal intracellular calcium: did not affect
[11]; another 2 human subjects
  Fasting blood glucose levels: elevation
[11]; fasting HI subject, i.v. 100, 300, 500 pmol/kg/min each 120 min, saline infusion dropped below 60
  Blood glucose levels during infusion: above 80 mg/dL
[11]; [13]
  Fasting hypoglycemia: prevented
  Plasma insulin: suppressed

— patent US10987407B2, “Methods and compositions for treating hypoglycemic disorders” (priority 2007, dated 2021)
